According to patent publication US20230085307A1, “PYRIDAZINONE COMPOUND AND HERBICIDE” (NISSAN CHEMICAL CORPORATION, priority 2019, published 2023):

Assays:
Japanese bulrush = test: Test Example 1: herbicidal activity, application before weed generation under submerged conditions (Table 16, symbol B); type: in vivo, Japanese bulrush (Schoenoplectus juncoides); conditions: 320 g/ha applied herbicide
How it was run: (§1)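 Emulsion formulation, water-diluted to set dose, was put onto the flooded surface (4 cm depth, alluvial soil) the same day weeds were sown and 2.5-leaf rice transplanted. After 3 weeks at 25-30 °C under glass, each species was rated 0 (≤5% kill) to 5 (≥90% kill).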

Chinese sprangletop = test: Test Example 3: herbicidal effect by foliage application, Wagner pot (Table 18, symbol D); type: in vivo, chinese sprangletop (Leptochloa chinensis); conditions: 320 g/ha
How it was run: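 Plants were sown in alluvial soil held under 0.1–0.5 cm standing water and grown 14 days in a greenhouse at 25–30 °C. An emulsifiable formulation, water-diluted to the set dose, was then sprayed onto the foliage, and effects were scored three weeks later using previously defined criteria.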

windgrass = test: Test Example 4: herbicidal effect by soil treatment (Table 19, symbol L); type: in vivo, windgrass (Apera spica-venti); conditions: 320 g/ha
How it was run: (§2)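 Herbicidal effect was rated 3 weeks after treatment, using the scoring criteria of an earlier test. The compound, formulated as an emulsion and diluted in water to a set herbicide amount, had been sprayed uniformly on soil over freshly sown seeds. Growth took place in a greenhouse at 25° C. to 30° C.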

oval-leafed pondweed [1] = test: Test Example 2: herbicidal activity, application during weed generation under submerged conditions (Table 17, symbol C); type: in vivo, oval-leafed pondweed (Monochoria vaginalis); conditions: AAH 320 g/ha; application during weed generation, submerged conditions
How it was run: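 Steps: fill Wagner pots with alluvial soil; add water to give 4 cm depth; sow the species mixed; grow under glass at 25–30° C.; at 1–2 leaves apply water-diluted emulsion formulation to the water surface at a fixed herbicide amount; score after 3 weeks.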

blackgrass = test: Test Example 4: herbicidal effect by soil treatment (Table 19, symbol J); type: in vivo, blackgrass (Alopecurus myosuroides); conditions: 320 g/ha
How it was run: as §2

southern crabgrass = test: Test Example 5: herbicidal effect by foliage application, plastic box (Table 20, symbol F); type: in vivo, southern crabgrass (Digitaria ciliaris); conditions: foliage application, 320 g/ha; for herbicidal effect on F: southern crabgrass: evaluated three weeks after application
How it was run: (§3)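 Foliar spray test: emulsion formulation diluted in water to a set application rate, sprayed onto 14-day-old plants raised in diluvial soil at 25° C to 30° C under glass. Both herbicidal effect and crop effect rated visually three weeks later.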

barnyard grass = test: Test Example 5: herbicidal effect by foliage application, plastic box (Table 20, symbol H); type: in vivo, barnyard grass (Echinochloa crus-galli); conditions: foliage application, 320 g/ha; for herbicidal effect on H: barnyard grass: evaluated three weeks after application
How it was run: as §3

oval-leafed pondweed [2] = test: Test Example 1: herbicidal activity, application before weed generation under submerged conditions (Table 16, symbol C); type: in vivo, oval-leafed pondweed (Monochoria vaginalis); conditions: 320 g/ha applied herbicide
How it was run: as §1

late watergrass = test: Test Example 1: herbicidal activity, application before weed generation under submerged conditions (Table 16, symbol A); type: in vivo, late watergrass (Echinochloa oryzicola); conditions: 320 g/ha applied herbicide
How it was run: as §1

persian speedwell = test: Test Example 4: herbicidal effect by soil treatment (Table 19, symbol R); type: in vivo, Persian speedwell (Veronica persica); conditions: 320 g/ha
How it was run: as §2

lambsquarters = test: Test Example 5: herbicidal effect by foliage application, plastic box (Table 20, symbol O); type: in vivo, lambsquarters (Chenopodium album); conditions: foliage application, 320 g/ha; for herbicidal effect on O: lambsquarters: evaluated three weeks after application
How it was run: as §3

Compound	Herbicidal effect on B: Japanese bulrush (grade 0-5) (Japanese bulrush)	herbicidal effect on D (Chinese sprangletop), rating 0-5 (Chinese sprangletop)	herbicidal effect rating, L: windgrass (windgrass)	herbicidal effect rating, C: oval-leafed pondweed (oval-leafed pondweed [1])	herbicidal effect rating, J: blackgrass (blackgrass)	effect on southern crabgrass (F) (southern crabgrass; 3 weeks after application)	effect on barnyard grass (H) (barnyard grass; 3 weeks after application)	Herbicidal effect on C: oval-leafed pondweed (grade 0-5) (oval-leafed pondweed [2])	Herbicidal effect on A: late watergrass (grade 0-5) (late watergrass)	herbicidal effect rating, R: persian speedwell (persian speedwell)	effect on lambsquarters (O) (lambsquarters; 3 weeks after application)	herbicidal effect on F: southern crabgrass (southern crabgrass)	herbicidal effect on H: barnyard grass (barnyard grass)	herbicidal effect on O: lambsquarters (lambsquarters)
CCCC(=O)Oc1c(C)nn(C)c(=O)c1-c1c(-c2ccccc2OC(F)(F)F)sc2ccc(F)cc12 [2-044]	0 (Herbicidal rate of 5% or less (almost no effect))	2 (Herbicidal rate of 20% or more and less than 40%)	0 (Herbicidal rate of 5% or less (almost no effect))	3 (Herbicidal rate of 40% or more and less than 70%)	0 (Herbicidal rate of 5% or less (almost no effect))	4 (Herbicidal rate of 70% or more and less than 90%)	0 (Herbicidal rate of 5% or less (almost no effect))	0 (Herbicidal rate of 5% or less (almost no effect))	3 (Herbicidal rate of 40% or more and less than 70%)	4 (Herbicidal rate of 70% or more and less than 90%)	1 (Herbicidal rate of 5% or more and less than 20%)	–	–	–
C#CCOc1ccc(-c2sc3ccc(F)cc3c2-c2c(OCOCCOC)c(C)nn(C)c2=O)cc1 [2-055]	3 (Herbicidal rate of 40% or more and less than 70%)	5 (Herbicidal rate of 90% or more (almost completely withered))	0 (Herbicidal rate of 5% or less (almost no effect))	3 (Herbicidal rate of 40% or more and less than 70%)	0 (Herbicidal rate of 5% or less (almost no effect))	–	–	1 (Herbicidal rate of 5% or more and less than 20%)	0 (Herbicidal rate of 5% or less (almost no effect))	5 (Herbicidal rate of 90% or more (almost completely withered))	–	1 (Herbicidal rate of 5% or more and less than 20%)	4 (Herbicidal rate of 70% or more and less than 90%)	5 (Herbicidal rate of 90% or more (almost completely withered))
COCCOc1ccc(-c2sc3ccc(F)cc3c2-c2c(O)c(C)nn(C)c2=O)cc1 [2-056]	5 (Herbicidal rate of 90% or more (almost completely withered))	5 (Herbicidal rate of 90% or more (almost completely withered))	0 (Herbicidal rate of 5% or less (almost no effect))	3 (Herbicidal rate of 40% or more and less than 70%)	0 (Herbicidal rate of 5% or less (almost no effect))	–	–	5 (Herbicidal rate of 90% or more (almost completely withered))	3 (Herbicidal rate of 40% or more and less than 70%)	5 (Herbicidal rate of 90% or more (almost completely withered))	–	5 (Herbicidal rate of 90% or more (almost completely withered))	5 (Herbicidal rate of 90% or more (almost completely withered))	5 (Herbicidal rate of 90% or more (almost completely withered))
Cc1nn(C)c(=O)c(-c2c(-c3ccc(OCC4CC4)cc3)sc3ccc(F)cc23)c1O [2-060]	5 (Herbicidal rate of 90% or more (almost completely withered))	3 (Herbicidal rate of 40% or more and less than 70%)	0 (Herbicidal rate of 5% or less (almost no effect))	1 (Herbicidal rate of 5% or more and less than 20%)	0 (Herbicidal rate of 5% or less (almost no effect))	–	–	4 (Herbicidal rate of 70% or more and less than 90%)	0 (Herbicidal rate of 5% or less (almost no effect))	5 (Herbicidal rate of 90% or more (almost completely withered))	–	4 (Herbicidal rate of 70% or more and less than 90%)	3 (Herbicidal rate of 40% or more and less than 70%)	4 (Herbicidal rate of 70% or more and less than 90%)
Cc1nn(C)c(=O)c(-c2c(-c3ccc(OCc4ccccc4)cc3)sc3ccc(F)cc23)c1O [2-062]	4 (Herbicidal rate of 70% or more and less than 90%)	5 (Herbicidal rate of 90% or more (almost completely withered))	0 (Herbicidal rate of 5% or less (almost no effect))	2 (Herbicidal rate of 20% or more and less than 40%)	0 (Herbicidal rate of 5% or less (almost no effect))	–	–	3 (Herbicidal rate of 40% or more and less than 70%)	4 (Herbicidal rate of 70% or more and less than 90%)	3 (Herbicidal rate of 40% or more and less than 70%)	–	3 (Herbicidal rate of 40% or more and less than 70%)	5 (Herbicidal rate of 90% or more (almost completely withered))	5 (Herbicidal rate of 90% or more (almost completely withered))
CCCC(=O)Oc1c(C)nn(C)c(=O)c1-c1c(-c2ccc(OC)c(F)c2)sc2ccc(F)cc12 [2-087]	4 (Herbicidal rate of 70% or more and less than 90%)	2 (Herbicidal rate of 20% or more and less than 40%)	0 (Herbicidal rate of 5% or less (almost no effect))	0 (Herbicidal rate of 5% or less (almost no effect))	0 (Herbicidal rate of 5% or less (almost no effect))	–	–	4 (Herbicidal rate of 70% or more and less than 90%)	5 (Herbicidal rate of 90% or more (almost completely withered))	5 (Herbicidal rate of 90% or more (almost completely withered))	–	0 (Herbicidal rate of 5% or less (almost no effect))	0 (Herbicidal rate of 5% or less (almost no effect))	4 (Herbicidal rate of 70% or more and less than 90%)
COc1ccc(-c2sc3ccc(F)cc3c2-c2c(O)c(C)nn(C)c2=O)cc1OC [2-088]	2 (Herbicidal rate of 20% or more and less than 40%)	3 (Herbicidal rate of 40% or more and less than 70%)	0 (Herbicidal rate of 5% or less (almost no effect))	2 (Herbicidal rate of 20% or more and less than 40%)	0 (Herbicidal rate of 5% or less (almost no effect))	–	–	0 (Herbicidal rate of 5% or less (almost no effect))	3 (Herbicidal rate of 40% or more and less than 70%)	3 (Herbicidal rate of 40% or more and less than 70%)	–	3 (Herbicidal rate of 40% or more and less than 70%)	3 (Herbicidal rate of 40% or more and less than 70%)	4 (Herbicidal rate of 70% or more and less than 90%)
